These results are taken from patent US11840686B2, “Modulation of prekallikrein (PKK) expression” (Ionis Pharmaceuticals, Inc., priority 2013, dated 2023).

The data set concerns human PKK mRNA. The data set is described as follows: Antisense inhibition of human PKK mRNA in HepaRG cells, 1,000 nM, MOE/deoxy/cEt oligonucleotides (Example 3). Format: cell-based. In short, it runs like this: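 HepaRG cells at 20,000 per well electroporated with 1,000 nM 16-mer MOE/cEt/deoxy gapmers (phosphorothioate, 5-methylcytosine). After about 24 h, PKK mRNA measured by qRT-PCR with primer probe set RTS3454, normalized to RIBOGREEN total RNA. Reported as percent inhibition versus untreated cells.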

[1] abbreviates: HepaRG cells, 1,000 nM antisense oligonucleotide, Table 29.
Setting [2] is: HepaRG cells, electroporation with 1,000 nM antisense oligonucleotide, approximately 24 hours, primer probe set RTS3454, relative to untreated control cells, experiment of Table 23.
Setting [3] is: Table 21 experiment, HepaRG cells, electroporation with 1,000 nM antisense oligonucleotide, approx. 24 hours, PKK mRNA by RT-PCR (RTS3454), relative to untreated control cells.
Setting [4] is: PKK mRNA, HepaRG cells, 1,000 nM antisense oligonucleotide, Table 31.
Setting [5] is: Table 19, HepaRG cells, electroporation with 1,000 nM antisense oligonucleotide, approximately 24 hours, PKK mRNA by RT-PCR (RTS3454), relative to untreated control cells.
Setting [6] is: Table 28, HepaRG cells, 1,000 nM antisense oligonucleotide, human PKK mRNA.
The mark [7] stands for this setting: Table 30, human PKK mRNA, HepaRG cells, 1,000 nM antisense oligonucleotide.
[8] abbreviates: HepaRG cells, electroporation with 1,000 nM antisense oligonucleotide, approximately 24 hours, primer probe set RTS3454, relative to untreated control cells, experiment of Table 24.
Where [9] appears, read: HepaRG cells, electroporation with 1,000 nM antisense oligonucleotide, approx. 24 hours, PKK mRNA by RT-PCR (RTS3454), relative to untreated control cells, Table 26 experiment.
The mark [10] stands for this setting: HepaRG cells, electroporation with 1,000 nM antisense oligonucleotide, approx. 24 hours, PKK mRNA by RT-PCR (RTS3454), relative to untreated control cells, Table 25 experiment.

Strand notation (5' to 3'): a small letter for the sugar, then the base; units joined by * are phosphorothioate-linked, units joined directly phosphodiester-linked; [ ] holds rarer units or linkages, { } end groups; capitals alone tell only the bases. e = 2'-O-(2-methoxyethyl) (MOE); k = constrained ethyl (cEt); [5mC] = 5-methylcytosine; d = 2'-deoxy (DNA)

Regarding “548555 (antisense eA*e[5mC]*kA*d[5mC]*dG*d[5mC]*d[5mC]*dA*dG*dG*dT*dG*dA*kA*kA*eA) [compound 548555]”, the “% inhibition” value under setting [1] amounted to 2%. Take “547951 (eA*eG*kA*dT*dA*dT*dG*dG*dT*dG*dT*dT*dT*kT*k[5mC]*eT; antisense) [compound 547951]”: the “% inhibition” value under setting [2] was 25%.

For “547856 (antisense e[5mC]*eA*kT*dA*dT*d[5mC]*dA*dA*d[5mC]*dT*d[5mC]*d[5mC]*dT*kT*kT*eA) [compound 547856]”, the “% inhibition” value came out at 93% (Table 20, HepaRG cells, electroporation with 1,000 nM antisense oligonucleotide, approximately 24 hours, PKK mRNA by RT-PCR (RTS3454), relative to untreated control cells) and 51% (Table 22 experiment, HepaRG cells, electroporation with 1,000 nM antisense oligonucleotide, approx. 24 hours, PKK mRNA by RT-PCR (RTS3454), relative to untreated control cells). For “547830 (eG*e[5mC]*kA*d[5mC]*d[5mC]*dT*dG*dT*dT*d[5mC]*dG*dA*dT*kG*kT*eA; antisense) [compound 547830]”, the “% inhibition” value under setting [3] was found to be 74%.

For “548639 (antisense eT*eG*kG*dG*dA*dA*dG*dA*dA*dA*d[5mC]*dT*dA*kG*k[5mC]*eA) [compound 548639]”, under setting [4], the “% inhibition” value was 10%.

As to “548087 (antisense eA*e[5mC]*kT*dA*dA*dG*dG*dG*dA*d[5mC]*d[5mC]*dA*d[5mC]*k[5mC]*kT*eG) [compound 548087]”, under setting [5], the “% inhibition” value amounted to 24%. On to “548512 (antisense eT*e[5mC]*k[5mC]*dG*d[5mC]*d[5mC]*dT*dT*dT*dG*dG*dA*dT*kA*k[5mC]*eT) [compound 548512]”, for which, under setting [6], the “% inhibition” value amounted to 49%. As to “547921 (eT*eG*kA*dG*dA*dA*d[5mC]*d[5mC]*d[5mC]*dT*dG*dG*d[5mC]*kA*kA*e[5mC]; antisense) [compound 547921]”, the “% inhibition” value under setting [2] turned out to be 43%. “548473 (e[5mC]*e[5mC]*kA*dA*d[5mC]*d[5mC]*dT*dT*d[5mC]*d[5mC]*d[5mC]*dA*dA*kT*k[5mC]*eT; antisense) [compound 548473]”: under setting [6], the “% inhibition” value worked out at 0%.

With “547823 (eA*eG*k[5mC]*dA*dA*d[5mC]*d[5mC]*dA*dA*dA*d[5mC]*d[5mC]*dT*kT*kT*eT; antisense) [compound 547823]”, under setting [3], the “% inhibition” value amounted to 51%. As to “547783 (antisense e[5mC]*eA*k[5mC]*dA*dA*dT*dT*dG*d[5mC]*dT*dT*d[5mC]*dT*kT*kG*eG) [compound 547783]”, under setting [3], the “% inhibition” value is listed as 48%. “548385 (eT*e[5mC]*k[5mC]*dT*dG*dG*dA*dG*dG*d[5mC]*dA*d[5mC]*d[5mC]*kA*kA*eT; antisense) [compound 548385]”: the “% inhibition” value under setting [7] is recorded as 0%. On to “547958 (e[5mC]*eA*kG*dG*dT*dT*dA*dA*dA*dA*dG*dG*d[5mC]*kT*kA*eT; antisense) [compound 547958]”, for which the “% inhibition” value under setting [2] amounted to 57%. The same measure, in the same setting: next, “547924 (eG*eT*k[5mC]*d[5mC]*dG*dA*d[5mC]*dA*d[5mC]*dA*d[5mC]*dA*dA*kA*kA*eG; antisense) [compound 547924]”: 53%. Consider “547781 (antisense e[5mC]*eA*kA*dT*dT*dG*d[5mC]*dT*dT*d[5mC]*dT*dT*dG*kG*kA*eG) [compound 547781]”, for which the “% inhibition” value under setting [3] turned out to be 49%. With “548516 (antisense e[5mC]*eT*kT*dG*d[5mC]*d[5mC]*dT*dA*dT*dT*d[5mC]*dA*d[5mC]*k[5mC]*k[5mC]*e[5mC]) [compound 548516]”, the “% inhibition” value under setting [6] was 49%. As to “548686 (antisense eA*e[5mC]*kG*dA*d[5mC]*dA*dA*dT*dG*dG*dG*dA*dT*kT*k[5mC]*eA) [compound 548686]”, the “% inhibition” value under setting [4] is given as 0%. For the substance “548556 (antisense eA*eT*kG*d[5mC]*dA*dT*dG*d[5mC]*d[5mC]*dT*dA*d[5mC]*d[5mC]*k[5mC]*kA*eA) [compound 548556]”, the “% inhibition” value under setting [1] is on record as 43%. Still for that read-out and setting: under “548594 (e[5mC]*e[5mC]*k[5mC]*dT*dT*d[5mC]*dT*dA*dA*d[5mC]*d[5mC]*dA*dA*kG*kG*eA; antisense) [compound 548594]” stands 30%. On to “548598 (eG*e[5mC]*kG*d[5mC]*d[5mC]*dA*dT*d[5mC]*dT*dG*d[5mC]*d[5mC]*d[5mC]*kT*kG*eT; antisense) [compound 548598]”, for which the “% inhibition” value under setting [1] is given as 50%. For “548101 (antisense eT*eA*k[5mC]*dT*d[5mC]*dA*dG*d[5mC]*dG*dA*d[5mC]*dT*dT*kT*kG*eG) [compound 548101]”, the “% inhibition” value under setting [5] is 47%. Turning to “548637 (antisense eG*e[5mC]*kT*dG*dA*dT*d[5mC]*dT*dT*d[5mC]*dT*dA*dA*kT*kG*e[5mC]) [compound 548637]”, under setting [4], the “% inhibition” value worked out at 38%. For the substance “548316 (e[5mC]*eT*kG*dT*dT*d[5mC]*dA*dG*dG*dT*dA*dG*d[5mC]*kA*k[5mC]*eA; antisense) [compound 548316]”, the “% inhibition” value (Table 27, HepaRG cells, 1,000 nM antisense oligonucleotide, human PKK mRNA) was found to be 64%. Consider “547812 (eG*eT*kG*d[5mC]*dA*d[5mC]*d[5mC]*dT*d[5mC]*dA*dT*d[5mC]*dT*kG*kG*e[5mC]; antisense) [compound 547812]”, for which the “% inhibition” value under setting [3] amounted to 51%. Take “548028 (eG*eG*kT*dG*dT*d[5mC]*d[5mC]*dT*dA*dT*dG*dA*dG*kT*kG*eA; antisense) [compound 548028]”: the “% inhibition” value under setting [8] came to 38%. On to “548258 (antisense e[5mC]*eA*kA*dG*dT*dG*d[5mC]*dT*d[5mC]*d[5mC]*d[5mC]*d[5mC]*dA*kT*kG*e[5mC]) [compound 548258]”, for which, under setting [9], the “% inhibition” value came out at 0%. With “548546 (antisense eG*e[5mC]*k[5mC]*d[5mC]*dA*dA*dG*d[5mC]*d[5mC]*dT*dA*d[5mC]*dA*kT*kG*e[5mC]) [compound 548546]”, the “% inhibition” value under setting [1] is on record as 35%.

As for “548384 (e[5mC]*eT*k[5mC]*dA*d[5mC]*d[5mC]*dG*dG*dT*dA*d[5mC]*dT*d[5mC]*kT*kG*e[5mC]; antisense) [compound 548384]”, the “% inhibition” value under setting [7] is 49%. As for “548561 (antisense eT*eG*kT*dA*dG*dT*dA*dT*d[5mC]*d[5mC]*dA*dG*dA*kG*kT*eA) [compound 548561]”, the “% inhibition” value under setting [1] is 46%. With “548134 (e[5mC]*eA*kG*dA*dA*dT*dT*dT*dG*dA*d[5mC]*dT*dT*kG*kA*eA; antisense) [compound 548134]”, under setting [5], the “% inhibition” value is reported as 17%. In the case of “548181 (eG*eT*k[5mC]*dA*dT*dG*dG*dA*dG*dA*dT*d[5mC]*dT*k[5mC]*kA*eG; antisense) [compound 548181]”, the “% inhibition” value under setting [10] was determined as 55%. “548388 (eA*eA*kG*dA*dG*dG*dA*dT*dG*dT*d[5mC]*dA*dG*kG*k[5mC]*eT; antisense) [compound 548388]”: the “% inhibition” value under setting [7] is 4%. For “548490 (antisense eT*e[5mC]*kT*dG*dG*dT*dT*dA*dG*d[5mC]*d[5mC]*dT*d[5mC]*k[5mC]*kG*eA) [compound 548490]”, under setting [6], the “% inhibition” value is on record as 58%. Turning to “548184 (eA*e[5mC]*kA*dG*dT*d[5mC]*dA*dT*dG*dG*dA*dG*dA*kT*k[5mC]*eT; antisense) [compound 548184]”, under setting [10], the “% inhibition” value is reported as 73%.

Regarding “548022 (e[5mC]*e[5mC]*kA*d[5mC]*dT*d[5mC]*dT*d[5mC]*d[5mC]*d[5mC]*d[5mC]*dA*dA*kG*kA*eA; antisense) [compound 548022]”, the “% inhibition” value under setting [8] was found to be 69%.

“547931 (eG*eT*kG*dA*dT*dA*dG*dG*dT*dG*d[5mC]*dA*dG*kA*kT*eG; antisense) [compound 547931]”: the “% inhibition” value under setting [2] is 58%. On to “548144 (eA*eT*kG*d[5mC]*d[5mC]*dA*d[5mC]*dT*d[5mC]*dT*d[5mC]*d[5mC]*dA*kT*kG*e[5mC]; antisense) [compound 548144]”, for which the “% inhibition” value under setting [5] is given as 52%.

“547779 (antisense eA*eT*kT*dG*d[5mC]*dT*dT*d[5mC]*dT*dT*dG*dG*dA*kG*kG*eT) [compound 547779]”: under setting [3], the “% inhibition” value is recorded as 41%. Take “548159 (e[5mC]*eG*k[5mC]*dA*dT*dT*dG*dT*d[5mC]*dA*dG*d[5mC]*d[5mC]*k[5mC]*k[5mC]*eT; antisense) [compound 548159]”: under setting [10], the “% inhibition” value came to 59%. Turning to “548064 (eT*eG*kG*dT*dA*dT*dA*dA*dA*dT*dT*dG*dT*kG*k[5mC]*eT; antisense) [compound 548064]”, under setting [8], the “% inhibition” value was 54%. Consider “547928 (eG*eA*kT*dG*dG*dT*d[5mC]*d[5mC]*dG*dA*d[5mC]*dA*d[5mC]*kA*k[5mC]*eA; antisense) [compound 547928]”, for which, under setting [2], the “% inhibition” value was found to be 70%. As to “548478 (eG*eA*kG*d[5mC]*d[5mC]*dA*dT*d[5mC]*d[5mC]*dA*dG*dG*dG*kT*kG*e[5mC]; antisense) [compound 548478]”, under setting [6], the “% inhibition” value worked out at 53%. For the substance “548525 (antisense eG*eT*k[5mC]*dT*dA*dA*d[5mC]*dT*dG*dG*d[5mC]*d[5mC]*dT*kG*kG*e[5mC]) [compound 548525]”, under setting [6], the “% inhibition” value turned out to be 2%. With “548263 (antisense e[5mC]*eT*k[5mC]*dT*dA*d[5mC]*dA*dT*dA*d[5mC]*dT*d[5mC]*dA*kG*kG*eA) [compound 548263]”, the “% inhibition” value under setting [9] came out at 62%.

In general, % inhibition refers to the percentage by which the read-out fell short of the control. A low value points to a response near the control.
